Results: patent US9586947B2, “Imidazoline derivatives, preparation methods thereof, and their applications in medicine” (priority 2012, dated 2017)

Assays:
[1] = tested on: PSA secretion of LNCaP cells; assay: Inhibitory activity on PSA secretion of LNCaP cells; assay type: cell-based; details: Homo sapiens, 96 h; LNCaP cells, 1 nM testosterone medium, 4 days of incubation, PSA kit OD450; read-out: IC50 (inhibition of PSA secretion of LNCaP cells)
Procedure: The following in vitro assay was performed to determine the activity of the compounds of the present invention for inhibiting prostate specific antigen (PSA) secretion of LNCaP cells.
(11). Testosterone culture medium: RIPM 1640 culture medium, 10% CS-FBS, 1% Pen Strep, 1 nM testosterone
LNCaP cells were subcultured in cell culture medium, resuspended in active carbon culture medium, and then inoculated into a 96-well plate (100 μl/well) with an inoculation density of 5×10^4 cells/well.
The test compounds were dissolved in DMSO (dimethyl sulfoxide) and prepared as a 10 mM stock solution. When used, the stock solution was diluted with 5×DMSO and then diluted with a threefold gradient to obtain 8 gradient concentrations. Then, the 8 gradient concentrations were each diluted with 20× testosterone culture medium, in order to ensure DMSO concentration in each culture system was 0.5%. Diluted test compounds remained to be tested.
10 μl of diluted test compounds were added to a 96-well plate and mixed gently. 10 μl of 0.5% DMSO diluted with active carbon culture medium was added to the blank group, and 10 μl of 0.5% DMSO diluted with testosterone culture medium was added to the control group. The 96-well plate was cultured in an incubator under the conditions of 37° C. and 5% CO2.
After 4 days of incubation, 60 μl of cell cultural supernatants were collected, and the OD450 value per well was measured on a NOVO Star microplate reader using PSA kit (Abnova, KA0208).
(§1) IC50 values were calculated from the data of the inhibition rates of the test compounds at various concentrations.

[2] = tested on: LNCaP cells; assay: Proliferation inhibition of LNCaP cells (CCK-8); assay type: cell-based; details: Homo sapiens, 144 h, cultured 3 + 3 days, CCK-8, OD at 450 nm
Procedure: The following in vitro assay was performed to determine the activity of the compounds of the present invention for inhibiting the proliferation of LNCaP cells.
(1). Cell counting reagent CCK-8 (DOJINDO, CK04)
See experimental procedure from Test Example 1.
After LNCaP cells were cultured for 3 days, the culture medium, test compounds, blank group, and control group were renewed with half of the liquid volume, and were cultured for another 3 days. Then, all 96-well plates were mixed gently with 10 μl of CCK-8 and cultured in an incubator for 2-3 hours under the conditions of 37° C. and 5% CO2. The OD value per well was measured at 450 nm on a Victor3 microplate reader.
as §1

CN1CCC(Oc2ccc(N3C(=S)N(c4ccc(C#N)c(C(F)(F)F)c4)C(=O)C3(C)C)cc2F)CC1 [Example 20, 4-(3-(3-Fluoro-4-((1-methylpiperidin-4-yl)oxy)phenyl)-4,4-dimethyl-5-oxo-2-thioxoimidazolidin-1-yl)-2-(trifluoromethyl)benzonitrile]
IC50 [1]: 57 nM
IC50 [2]: 156 nM

CC1(C)C(=O)N(c2ccc(C#N)c(C(F)(F)F)c2)C(=S)N1c1ccc(O[C@@H]2CCOC2)nc1 [Example 21, (R)-4-(4,4-Dimethyl-5-oxo-3-(6-((tetrahydrofuran-3-yl)oxy)pyridin-3-yl)-2-thioxoimidazolidin-1-yl)-2-(trifluoromethyl)benzonitrile]
IC50 [1]: 76 nM
IC50 [2]: 92 nM

CC1(C)C(=O)N(c2ccc(C#N)c(C(F)(F)F)c2)C(=S)N1c1ccc(OCCCS(C)(=O)=O)c(F)c1 [Example 22, 4-(3-(3-Fluoro-4-(3-(methylsulfonyl)propoxy)phenyl)-4,4-dimethyl-5-oxo-2-thioxoimidazolidin-1-yl)-2-(trifluoromethyl)benzonitrile]
IC50 [1]: 21 nM
IC50 [2]: 134 nM

CC1(C)C(=O)N(c2ccc(C#N)c(C(F)(F)F)c2)C(=S)N1c1ccc(OC2CCS(=O)(=O)CC2)c(F)c1 [Example 23, 4-(3-(4-((1,1-Dioxidotetrahydro-2H-thiopyran-4-yl)oxy)-3-fluorophenyl)-4,4-dimethyl-5-oxo-2-thioxoimidazolidin-1-yl)-2-(trifluoromethyl)benzonitrile]
IC50 [1]: 24 nM
IC50 [2]: 180 nM

CC1(C)C(=O)N(c2ccc(C#N)c(C(F)(F)F)c2)C(=S)N1c1ccc(O[C@H]2CCOC2)nc1 [Example 24, (S)-4-(4,4-Dimethyl-5-oxo-3-(6-((tetrahydrofuran-3-yl)oxy)pyridin-3-yl)-2-thioxoimidazolidin-1-yl)-2-(trifluoromethyl)benzonitrile]
IC50 [1]: 32 nM
IC50 [2]: 92 nM

CC1(C)C(=O)N(c2ccc(C#N)c(C(F)(F)F)c2)C(=S)N1c1ccc(OCC2CCOC2)nc1 (centres unmarked) [Example 25, 4-(4,4-Dimethyl-5-oxo-3-(6-((tetrahydrofuran-3-yl)methoxy)pyridin-3-yl)-2-thioxoimidazolidin-1-yl)-2-(trifluoromethyl)benzonitrile]
IC50 [1]: 31 nM
IC50 [2]: 111 nM

CNC(=O)c1ccccc1Oc1ccc(N2C(=S)N(c3ccc(C#N)c(C(F)(F)F)c3)C(=O)C2(C)C)cc1F [Example 26, 2-(4-(3-(4-Cyano-3-(trifluoromethyl)phenyl)-5,5-dimethyl-4-oxo-2-thioxoimidazolidin-1-yl)-2-fluorophenoxy)-N-methylbenzamide]
IC50 [1]: 44 nM
IC50 [2]: 201 nM

CC1(C)C(=O)N(c2ccc(C#N)c(C(F)(F)F)c2)C(=S)N1c1ccc(OC2CCNC2)c(F)c1 (centres unmarked) [Example 28, 4-(3-(3-Fluoro-4-((pyrrolidin-3-yl)oxy)phenyl)-4,4-dimethyl-5-oxo-2-thioxoimidazolidin-1-yl)-2-(trifluoromethyl)benzonitrile]
IC50 [1]: 82 nM
IC50 [2]: 79 nM

CN1CCC(Oc2ccc(N3C(=S)N(c4ccc(C#N)c(C(F)(F)F)c4)C(=O)C3(C)C)cc2F)C1 (centres unmarked) [Example 29, 4-(3-(3-Fluoro-4-((1-methylpyrrolidin-3-yl)oxy)phenyl)-4,4-dimethyl-5-oxo-2-thioxoimidazolidin-1-yl)-2-(trifluoromethyl)benzonitrile]
IC50 [1]: 85 nM
IC50 [2]: 80 nM

CC1(C)C(=O)N(c2ccc(C#N)c(C(F)(F)F)c2)C(=S)N1c1ccc(OC(F)F)nc1 [Example 30, 4-(3-(6-(Difluoromethoxy)pyridin-3-yl)-4,4-dimethyl-5-oxo-2-thioxoimidazolidin-1-yl)-2-(trifluoromethyl)benzonitrile]
IC50 [1]: 17 nM
IC50 [2]: 58 nM

CNC(=O)COc1ccc(N2C(=S)N(c3ccc(C#N)c(C(F)(F)F)c3)C(=O)C2(C)C)cc1F [Example 32, 2-(4-(3-(4-Cyano-3-(trifluoromethyl)phenyl)-5,5-dimethyl-4-oxo-2-thioxoimidazolidin-1-yl)-2-fluorophenoxy)-N-methylacetamide]
IC50 [1]: 110 nM
IC50 [2]: 134 nM

CNC(=O)C1(COc2ccc(N3C(=S)N(c4ccc(C#N)c(C(F)(F)F)c4)C(=O)C3(C)C)cc2F)CC1 [Example 34, 1-((4-(3-(4-Cyano-3-(trifluoromethyl)phenyl)-5,5-dimethyl-4-oxo-2-thioxoimidazolidin-1-yl)-2-fluorophenoxy)methyl)-N-methylcyclopropanecarboxamide]
IC50 [1]: 51 nM
IC50 [2]: 159 nM

CC1(C)C(=O)N(c2ccc(C#N)c(Cl)c2)C(=S)N1c1ccc(OCC2(N)CC2)c(F)c1 [Example 35, 4-(3-(4-((1-Aminocyclopropyl)methoxy)-3-fluorophenyl)-4,4-dimethyl-5-oxo-2-thioxoimidazolidin-1-yl)-2-chlorobenzonitrile]
IC50 [1]: 57 nM
IC50 [2]: 277 nM

CC(=O)N1CCC(Oc2ccc(N3C(=S)N(c4ccc(C#N)c(C(F)(F)F)c4)C(=O)C3(C)C)cc2F)C1 (centres unmarked) [Example 36, 4-(3-(4-((1-Acetylpyrrolidin-3-yl)oxy)-3-fluorophenyl)-4,4-dimethyl-5-oxo-2-thioxoimidazolidin-1-yl)-2-(trifluoromethyl)benzonitrile]
IC50 [1]: 23 nM
IC50 [2]: 115 nM

CC1(C)C(=O)N(c2ccc(C#N)c(C(F)(F)F)c2)C(=S)N1c1ccc(OCC2(N)CC2)cc1 [Example 37, 4-(3-(4-((1-Aminocyclopropyl)methoxy)phenyl)-4,4-dimethyl-5-oxo-2-thioxoimidazolidin-1-yl)-2-(trifluoromethyl)benzonitrile]
IC50 [1]: 23 nM
IC50 [2]: 63 nM

CC1(C)C(=O)N(c2ccc(C#N)c(C(F)(F)F)c2)C(=S)N1c1ccc(OCC2(C#N)CC2)c(F)c1 [Example 39, 4-(3-(4-((1-Cyanocyclopropyl)methoxy)-3-fluorophenyl)-4,4-dimethyl-5-oxo-2-thioxoimidazolidin-1-yl)-2-(trifluoromethyl)benzonitrile]
IC50 [1]: 27 nM
IC50 [2]: 256 nM

CC1(C)C(=O)N(c2ccc(C#N)c(C(F)(F)F)c2)C(=S)N1c1ccc(OC2COC2)cc1 [Example 40, 4-(4,4-Dimethyl-3-(4-((oxetan-3-yl)oxy)phenyl)-5-oxo-2-thioxoimidazolidin-1-yl)-2-(trifluoromethyl)benzonitrile]
IC50 [1]: 29 nM
IC50 [2]: 196 nM

CC1(C)C(=O)N(c2ccc(C#N)c(C(F)(F)F)c2)C(=S)N1c1ccc(OC2COC2)c(F)c1 [Example 41, 4-(3-(3-Fluoro-4-((oxetan-3-yl)oxy)phenyl)-4,4-dimethyl-5-oxo-2-thioxoimidazolidin-1-yl)-2-(trifluoromethyl)benzonitrile]
IC50 [1]: 24 nM
IC50 [2]: 283 nM

CC1(C)C(=O)N(c2ccc(C#N)c(C(F)(F)F)c2)C(=S)N1c1ccc(OCC(O)CO)cc1 (centres unmarked) [Example 48, 4-(3-(4-(2,3-Dihydroxypropoxy)phenyl)-4,4-dimethyl-5-oxo-2-thioxoimidazolidin-1-yl)-2-(trifluoromethyl)benzonitrile]
IC50 [1]: 37 nM
IC50 [2]: 281 nM
